The target of assay [1] is Transitional endoplasmic reticulum ATPase (Homo sapiens, UniProt P55072, C522A). Briefly: C522A mutant p97 ATPase inhibitors, dose response, counter-screen for p97 inhibitor project, biochemical, luminescence (AID 1544).
Assay [2] concerns the target Transitional endoplasmic reticulum ATPase (Homo sapiens, UniProt P55072). The assay can be described thus: p97 ATPase inhibitors, dose response, biochemical (AID 1534).
For assay [3], the target named is G2/mitotic-specific cyclin-B1 (Homo sapiens, UniProt P14635). Briefly: Counterscreen assay for inhibitors of Wee1 degradation: dose response cell-based assay to identify inhibitors of cyclin B degradation. [Related pubchem assays: 1410, 1321 ]. It counts as functional. Background: Counterscreens check selectivity or assay interference.
Sequence of G2/mitotic-specific cyclin-B1 (P14635 whole entry): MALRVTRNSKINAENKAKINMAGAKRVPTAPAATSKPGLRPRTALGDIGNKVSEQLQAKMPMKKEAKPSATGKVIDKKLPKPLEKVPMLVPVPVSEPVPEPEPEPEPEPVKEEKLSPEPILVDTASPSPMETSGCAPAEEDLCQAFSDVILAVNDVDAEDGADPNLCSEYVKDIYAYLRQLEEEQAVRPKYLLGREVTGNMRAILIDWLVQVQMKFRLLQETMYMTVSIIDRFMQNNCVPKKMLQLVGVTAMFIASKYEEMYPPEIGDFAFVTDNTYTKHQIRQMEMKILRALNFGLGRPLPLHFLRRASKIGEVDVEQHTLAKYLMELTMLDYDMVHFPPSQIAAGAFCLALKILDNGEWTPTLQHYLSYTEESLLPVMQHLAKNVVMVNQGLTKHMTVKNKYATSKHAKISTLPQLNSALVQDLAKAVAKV
The target of another assay is Wee1-like protein kinase (Homo sapiens, UniProt P30291). Briefly: Dose Response Cell-based Assay for Inhibitors of Wee1 Degradation. [Related pubchem assays: 1410, 1321 ]. Format: functional.
A short description of assay [4]: cytotoxicity in HPDE-C7 cells, cell-based, fluorescence, HTS (AID 430). It counts as functional. As to conditions: Homo sapiens.
Assay [5] can be described thus: microbe, parasite or virus in culture. Format: functional. As to conditions: Mycobacterium tuberculosis.
Assay [6] is described as follows: cytotoxicity in KRAS-transformed pancreatic duct cells, primary screen, cell-based, fluorescence, HTS (AID 431).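 Also: cell line used: HPDE-C7K.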 As to conditions: Homo sapiens. Format: functional.
Assay [7] can be described thus: growth suppression of PTEN-null colon cells, dose response, cell-based, HCT116 PTEN knockout (AID 1047).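 Also: HCT116 colon tumor cells with PTEN knocked out; cells exposed to compound for 60 hours before readout; potency for loss of cell viability measured by luminescence.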 Format: functional.
Assay [8] has as its target T1, Calpain-2 catalytic subunit (Sus scrofa, UniProt P43367).
T1 sequence (P43367 whole entry): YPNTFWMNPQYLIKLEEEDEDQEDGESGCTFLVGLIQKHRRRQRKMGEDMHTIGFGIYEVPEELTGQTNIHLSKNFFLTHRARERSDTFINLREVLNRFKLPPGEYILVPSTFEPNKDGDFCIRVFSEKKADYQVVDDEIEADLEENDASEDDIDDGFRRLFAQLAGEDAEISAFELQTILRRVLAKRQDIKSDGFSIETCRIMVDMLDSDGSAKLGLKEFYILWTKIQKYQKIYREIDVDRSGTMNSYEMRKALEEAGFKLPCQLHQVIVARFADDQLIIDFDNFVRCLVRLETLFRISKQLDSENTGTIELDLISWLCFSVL
Briefly: pig calpain II inhibitor potency, dose response, biochemical, fluorogenic peptide substrate (AID 1420). Format: functional.

A short description of assay [9]: growth suppression of beta-catenin-knockout colon cells, dose response, cell-based, HCT116, human colon tumor (AID 1045).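 Also: HCT116 colon tumor cells with beta catenin knocked out; cells exposed to compound for 60 hours.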 Format: functional.
Assay [10] is described as follows: THP-1 cell cytotoxicity, dose response, cytotoxicity control for non-replicating M. tuberculosis project (AID 489025). It counts as functional.
Assay [11] in a line: HepG2 cell cytotoxicity, dose response, cytotoxicity control for non-replicating M. tuberculosis project (AID 489018). As to conditions: Mycobacterium tuberculosis. It counts as functional.
Assay [12] can be described thus: Vero E6 cell cytotoxicity, dose response, cytotoxicity control for non-replicating M. tuberculosis project, secondary assay (AID 492998). Format: functional, VeroE6. As to conditions: Vero C1008.
A short description of assay [13]: cells. It counts as functional.
The test system of the next assay is INS1. Briefly: beta cell apoptosis inhibitors, cytokine rescue, dose response, luminescence, retest (AID 449756).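 Also: cell death triggered by IL-1 beta plus TNF-alpha plus IFN-gamma mixture; protective hits raise ATP signal compared with cytokine alone wells.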 It counts as functional, cell-based. As to conditions: Rattus norvegicus.
Assay [14] addresses T2, Eukaryotic translation initiation factor 2-alpha kinase 3 (Homo sapiens, UniProt Q9NZJ5). The assay can be described thus: Dose response cell-based high-throughput screening assay to measure PERK inhibition. [Related pubchem assays: 1416 ]. It counts as functional.
The target of assay [15] is T2, Eukaryotic translation initiation factor 2-alpha kinase 3. Briefly: Counterscreen assay for PERK inhibitors: Dose response cell-based high throughput screening assay to measure inhibition of PERK at 6 hours. [Related pubchem assays: 1522, 1416 ]. It counts as functional.
In assay [16] the test system is HEK293. Briefly: Fluorescence-based counterscreen for potentiators or agonists of NPY-Y2: cell-based high-throughput dose response assay to identify inhibitors of cyclic nucleotide gated ion channel (CNGC) activity. In this assay, the parental HEK293 cell line transfected with a cyclic-nucleotide gated ion channel (CNGC)-based cAMP sensor is used to measure inhibition of isoproterenol-induced CNGC activity by test compound. Format: functional. As to conditions: Homo sapiens.

The nature of assay [17]: insulin promoter down-regulators in MIN6 cells, imaging, high-content screening, mouse beta cells (AID 1628). Format: functional.
Assay [18] addresses Neuropeptide Y receptor type 2 (Homo sapiens, UniProt P49146). The assay can be described thus: Fluorescence-based cell-based high-throughput dose response assay for agonists of NPY-Y2. [Related pubchem assays: 1703 (Screening assay (CNGC inhibitors).), 1359 (Screening assay (NPY-Y2 potentiators or agonists).), 1304 (Screening assay (NPY-Y1 potentiators or agonists).), 1710 (Screening assay (NPY-Y2 agonists).), 1791 (Summary AID.)]. It counts as functional.

Assay [19] can be described thus: cytotoxicity in MIN6 insulinoma cells, dose response, cytotoxicity control, cell-based, mouse insulinoma (AID 2122).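 Also: confirmatory high-throughput counterscreen run to flag cytotoxic compounds; mouse MIN-6 beta cells carrying an insulin promoter eGFP reporter.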 It counts as functional.
Assay [20] addresses Neuropeptide Y receptor type 1 (Homo sapiens, UniProt P25929). The assay can be described thus: Fluorescence-based counterscreen for agonists of NPY-Y2: cell-based high-throughput dose response assay for agonists of NPY-Y1. It counts as functional.
In the next assay the target is Tumor necrosis factor (Homo sapiens, UniProt P01375). Briefly: TNFa-triggered NF-kB activation inhibitors, SAR follow-up, cell-based, revised (AID 2337). It counts as functional.
Sequence of Tumor necrosis factor (P01375 whole entry, the tested form may be a part): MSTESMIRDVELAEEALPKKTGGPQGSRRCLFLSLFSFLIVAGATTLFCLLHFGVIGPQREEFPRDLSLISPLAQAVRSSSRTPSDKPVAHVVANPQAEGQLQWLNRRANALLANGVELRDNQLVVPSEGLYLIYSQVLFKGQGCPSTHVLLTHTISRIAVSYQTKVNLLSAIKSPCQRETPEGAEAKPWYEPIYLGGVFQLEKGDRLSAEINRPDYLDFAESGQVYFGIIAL
Assay [21] has as its target T3, Nucleotide-binding oligomerization domain-containing protein 1 (Homo sapiens, UniProt Q9Y239).
T3 sequence (Q9Y239 whole entry): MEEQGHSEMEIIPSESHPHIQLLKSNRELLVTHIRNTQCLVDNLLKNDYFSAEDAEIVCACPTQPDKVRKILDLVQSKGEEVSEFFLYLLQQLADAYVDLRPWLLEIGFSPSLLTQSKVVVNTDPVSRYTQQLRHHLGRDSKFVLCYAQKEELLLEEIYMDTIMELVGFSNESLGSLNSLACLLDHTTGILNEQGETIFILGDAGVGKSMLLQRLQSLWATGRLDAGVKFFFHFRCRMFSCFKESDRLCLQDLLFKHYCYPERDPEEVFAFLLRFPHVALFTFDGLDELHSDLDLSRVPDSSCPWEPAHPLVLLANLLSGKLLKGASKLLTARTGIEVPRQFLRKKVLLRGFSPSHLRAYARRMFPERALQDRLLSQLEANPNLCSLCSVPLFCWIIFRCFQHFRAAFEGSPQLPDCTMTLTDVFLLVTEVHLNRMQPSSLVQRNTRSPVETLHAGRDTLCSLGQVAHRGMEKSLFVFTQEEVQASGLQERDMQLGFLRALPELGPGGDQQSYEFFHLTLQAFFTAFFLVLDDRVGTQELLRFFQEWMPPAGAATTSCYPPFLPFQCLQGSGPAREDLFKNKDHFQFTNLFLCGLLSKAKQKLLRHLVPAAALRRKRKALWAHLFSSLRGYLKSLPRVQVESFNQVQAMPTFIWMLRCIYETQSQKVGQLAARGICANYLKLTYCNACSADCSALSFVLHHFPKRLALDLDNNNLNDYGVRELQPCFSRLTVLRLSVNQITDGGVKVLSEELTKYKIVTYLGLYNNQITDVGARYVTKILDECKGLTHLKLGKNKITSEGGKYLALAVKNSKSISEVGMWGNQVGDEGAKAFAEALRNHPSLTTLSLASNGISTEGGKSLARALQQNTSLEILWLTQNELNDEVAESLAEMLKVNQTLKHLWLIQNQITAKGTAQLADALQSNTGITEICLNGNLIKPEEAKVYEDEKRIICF
Briefly: NOD1 signaling inhibitors, SAR follow-up, revised (AID 2333). Format: functional.

Another assay concerns Vero. Briefly: cells. Format: functional. As to conditions: Chlorocebus sabaeus.
Assay [22] relates to HEK293. The assay can be described thus: cells. As to conditions: Homo sapiens.
In the next assay the test system is Staphylococcus aureus. The assay can be described thus: Inhibitors of Bacterial Quorum Sensing Structure Activity Relationship (SAR) Analysis: Dose Response Assay. [Related pubchem assays: 700, 527 ]. It counts as functional, organism-based.
In assay [23] the target is Photoreceptor-specific nuclear receptor (Homo sapiens, UniProt Q9Y5X4). It counts as functional.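 Also: potency for compounds that break the NR2E3 corepressor complex and count as activators.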
The target of assay [24] is Peroxisome proliferator-activated receptor gamma/Nuclear receptor corepressor 2 (Homo sapiens, UniProt P37231+Q9Y618). Format: functional.
Sequence of Peroxisome proliferator-activated receptor gamma/Nuclear receptor corepressor 2 (P37231 whole entry): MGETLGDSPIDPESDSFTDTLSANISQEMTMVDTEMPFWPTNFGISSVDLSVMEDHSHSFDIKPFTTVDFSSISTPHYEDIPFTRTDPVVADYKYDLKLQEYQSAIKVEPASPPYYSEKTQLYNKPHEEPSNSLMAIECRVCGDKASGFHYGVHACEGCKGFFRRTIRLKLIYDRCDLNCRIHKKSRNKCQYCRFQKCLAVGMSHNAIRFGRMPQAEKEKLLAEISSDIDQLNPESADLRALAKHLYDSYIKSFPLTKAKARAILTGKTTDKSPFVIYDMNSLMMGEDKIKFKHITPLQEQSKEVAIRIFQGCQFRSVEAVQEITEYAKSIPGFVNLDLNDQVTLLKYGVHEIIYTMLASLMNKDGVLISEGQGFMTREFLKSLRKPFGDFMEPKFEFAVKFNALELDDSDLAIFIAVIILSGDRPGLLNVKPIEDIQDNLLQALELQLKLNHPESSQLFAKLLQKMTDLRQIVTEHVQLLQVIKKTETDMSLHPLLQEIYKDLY
Sequence of Peroxisome proliferator-activated receptor gamma/Nuclear receptor corepressor 2 (Q9Y618 whole entry): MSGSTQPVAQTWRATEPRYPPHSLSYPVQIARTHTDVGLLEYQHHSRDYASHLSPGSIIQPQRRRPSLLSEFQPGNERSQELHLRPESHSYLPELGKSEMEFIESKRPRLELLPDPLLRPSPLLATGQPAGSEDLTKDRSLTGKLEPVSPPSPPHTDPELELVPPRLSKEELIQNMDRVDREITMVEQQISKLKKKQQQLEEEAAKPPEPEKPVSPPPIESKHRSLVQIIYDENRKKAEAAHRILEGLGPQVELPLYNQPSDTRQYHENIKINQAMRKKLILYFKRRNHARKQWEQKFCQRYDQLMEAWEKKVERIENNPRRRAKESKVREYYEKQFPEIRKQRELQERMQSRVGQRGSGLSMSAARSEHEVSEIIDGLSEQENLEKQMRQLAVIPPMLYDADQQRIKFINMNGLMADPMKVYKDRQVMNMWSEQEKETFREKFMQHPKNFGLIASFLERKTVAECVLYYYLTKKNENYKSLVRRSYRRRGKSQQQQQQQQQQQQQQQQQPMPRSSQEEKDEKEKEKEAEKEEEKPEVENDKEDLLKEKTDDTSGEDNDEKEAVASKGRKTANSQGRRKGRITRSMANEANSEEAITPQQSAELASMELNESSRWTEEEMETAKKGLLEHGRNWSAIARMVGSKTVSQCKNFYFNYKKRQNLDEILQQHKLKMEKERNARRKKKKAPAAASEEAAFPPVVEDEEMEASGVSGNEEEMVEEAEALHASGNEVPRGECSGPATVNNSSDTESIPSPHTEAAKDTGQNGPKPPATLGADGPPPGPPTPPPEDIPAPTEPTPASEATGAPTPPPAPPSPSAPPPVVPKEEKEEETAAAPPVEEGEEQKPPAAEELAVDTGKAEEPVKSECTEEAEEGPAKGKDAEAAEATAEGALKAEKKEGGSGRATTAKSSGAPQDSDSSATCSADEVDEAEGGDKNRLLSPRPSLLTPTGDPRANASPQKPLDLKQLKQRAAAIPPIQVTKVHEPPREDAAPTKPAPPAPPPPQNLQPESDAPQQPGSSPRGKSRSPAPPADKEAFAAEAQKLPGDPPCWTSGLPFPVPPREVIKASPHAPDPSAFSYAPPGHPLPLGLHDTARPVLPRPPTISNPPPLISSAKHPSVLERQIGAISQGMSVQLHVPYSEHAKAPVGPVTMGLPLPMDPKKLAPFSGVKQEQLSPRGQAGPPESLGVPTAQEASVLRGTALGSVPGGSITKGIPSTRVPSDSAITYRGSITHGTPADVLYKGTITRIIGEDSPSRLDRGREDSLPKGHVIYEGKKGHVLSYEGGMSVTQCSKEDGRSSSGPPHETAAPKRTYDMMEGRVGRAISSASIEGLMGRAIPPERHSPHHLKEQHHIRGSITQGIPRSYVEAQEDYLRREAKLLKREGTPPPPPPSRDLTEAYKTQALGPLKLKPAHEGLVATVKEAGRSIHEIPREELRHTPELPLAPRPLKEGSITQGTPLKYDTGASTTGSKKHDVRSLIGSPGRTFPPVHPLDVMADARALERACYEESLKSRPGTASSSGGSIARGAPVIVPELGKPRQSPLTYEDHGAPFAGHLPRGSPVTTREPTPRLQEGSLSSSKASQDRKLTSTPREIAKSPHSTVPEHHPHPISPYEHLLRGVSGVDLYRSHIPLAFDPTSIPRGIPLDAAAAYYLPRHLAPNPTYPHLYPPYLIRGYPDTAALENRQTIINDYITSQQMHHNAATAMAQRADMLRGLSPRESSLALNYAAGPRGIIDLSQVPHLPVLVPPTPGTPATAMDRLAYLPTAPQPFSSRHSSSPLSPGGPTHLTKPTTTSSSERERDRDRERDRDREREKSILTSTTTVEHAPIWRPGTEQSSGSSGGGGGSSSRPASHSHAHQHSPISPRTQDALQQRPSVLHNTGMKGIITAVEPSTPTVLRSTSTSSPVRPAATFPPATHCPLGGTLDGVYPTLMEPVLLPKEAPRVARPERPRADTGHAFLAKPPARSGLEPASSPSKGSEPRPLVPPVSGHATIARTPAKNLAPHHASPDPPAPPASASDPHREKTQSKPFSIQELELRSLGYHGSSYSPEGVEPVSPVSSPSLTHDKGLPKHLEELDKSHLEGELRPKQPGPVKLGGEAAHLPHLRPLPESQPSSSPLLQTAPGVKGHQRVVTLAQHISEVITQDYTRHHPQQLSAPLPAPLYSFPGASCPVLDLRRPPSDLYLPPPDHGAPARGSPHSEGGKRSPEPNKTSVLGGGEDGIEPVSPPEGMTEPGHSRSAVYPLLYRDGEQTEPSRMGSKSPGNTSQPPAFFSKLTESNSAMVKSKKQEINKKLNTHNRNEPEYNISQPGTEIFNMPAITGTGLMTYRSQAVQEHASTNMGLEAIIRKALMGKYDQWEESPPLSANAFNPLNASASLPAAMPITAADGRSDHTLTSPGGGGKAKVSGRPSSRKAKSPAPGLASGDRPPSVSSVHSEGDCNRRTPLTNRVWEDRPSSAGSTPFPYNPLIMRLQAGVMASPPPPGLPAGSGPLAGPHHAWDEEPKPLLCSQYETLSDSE
Assay [25] concerns the target Lysosomal acid glucosylceramidase (Homo sapiens, UniProt P04062). Briefly: Dose response cell-based high throughput screening assay to identify enhancers of beta-glucosidase activity. [Related pubchem assays: 784 ]. Format: functional.
Assay [26] can be described thus: cells. Format: functional, cell-based.
A short description of assay [27]: cells. Format: functional, cell-based. The source holds these as a separate data set.

The source made the active and inactive calls. Bounds are passed on as bounds.

T2 sequence (Q9NZJ5 whole entry): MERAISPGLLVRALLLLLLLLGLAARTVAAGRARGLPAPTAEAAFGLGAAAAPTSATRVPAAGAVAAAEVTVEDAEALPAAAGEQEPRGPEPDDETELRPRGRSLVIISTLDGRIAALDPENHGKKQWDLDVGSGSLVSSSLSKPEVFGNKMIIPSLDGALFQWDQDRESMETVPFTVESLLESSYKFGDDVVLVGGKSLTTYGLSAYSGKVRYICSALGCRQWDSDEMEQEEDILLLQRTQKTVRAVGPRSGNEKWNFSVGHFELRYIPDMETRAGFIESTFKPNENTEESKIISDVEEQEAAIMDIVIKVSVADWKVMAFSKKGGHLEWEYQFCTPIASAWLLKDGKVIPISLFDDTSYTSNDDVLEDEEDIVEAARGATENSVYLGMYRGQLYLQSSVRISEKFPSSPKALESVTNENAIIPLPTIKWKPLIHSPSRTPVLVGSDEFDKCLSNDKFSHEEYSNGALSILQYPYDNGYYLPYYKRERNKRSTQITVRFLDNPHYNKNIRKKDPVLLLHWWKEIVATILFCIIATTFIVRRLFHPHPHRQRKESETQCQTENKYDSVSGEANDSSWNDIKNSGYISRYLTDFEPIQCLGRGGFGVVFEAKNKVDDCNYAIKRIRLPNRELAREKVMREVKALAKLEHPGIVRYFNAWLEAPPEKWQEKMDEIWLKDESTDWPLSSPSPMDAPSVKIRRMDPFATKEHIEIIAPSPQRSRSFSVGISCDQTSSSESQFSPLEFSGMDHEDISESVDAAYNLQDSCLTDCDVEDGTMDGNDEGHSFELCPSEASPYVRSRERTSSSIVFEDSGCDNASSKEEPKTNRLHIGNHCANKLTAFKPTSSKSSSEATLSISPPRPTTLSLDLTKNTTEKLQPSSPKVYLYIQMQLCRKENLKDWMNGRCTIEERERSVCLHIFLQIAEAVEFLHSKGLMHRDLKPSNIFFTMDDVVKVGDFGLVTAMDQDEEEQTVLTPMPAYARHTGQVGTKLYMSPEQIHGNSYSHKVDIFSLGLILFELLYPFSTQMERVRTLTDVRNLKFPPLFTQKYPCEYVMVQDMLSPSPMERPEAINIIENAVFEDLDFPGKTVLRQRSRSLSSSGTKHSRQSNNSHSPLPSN

Take `Cc1ccc2[nH]cc(C(=O)CCl)c2c1`: the IC50 in assay [1] and in [2] was > 50 µM (not active) each time.

As for `[O-][n+]1onc2c3cc(-c4ccccc4)[nH]c3ccc21`, the half-maximal effective concentration (EC50) is > 49.7 µM (not active) in [3]; > 1.84 µM (active) on Wee1-like protein kinase; 4.16 µM (active) in assay [4]; 9.83 µM (active) in assay [6]; 0.65 µM (active) in assay [7]; 0.597 µM (active) in assay [9]. Besides, the CC50 was 1.47 µM (active) in assay [5], 1.57 µM (active) in [10], 2.6 µM (active) in [11] and 1.27 µM (active) in [12]. Moreover, the 50% inhibitory concentration (IC50) in assay [8] is 1.59 µM (not active); in the assay “cells [13]”, 0.67 µM (active). The AC50 with INS1 is 2.52 µM (active).

Consider `COc1ccc2nc(NC(=O)CSc3nnc(C)n3N)sc2c1`, for which the EC50 in [14] and in assay [15] was > 55.7 µM (not active) in each case.

Turning to `O=C(Nc1cccc([N+](=O)[O-])c1)c1cc2ccccc2cc1O`, the half-maximal effective concentration (EC50) (with HEK293 [16]; in [18]; in assay [20]) was > 35.4 µM (not active) throughout. Moreover, the 50% inhibitory concentration (IC50) in assay [17] was 2.73 µM (active); in [19], 2.72 µM (active); at Tumor necrosis factor, 2.2 µM (active); in [21] it was 1.48 µM (active); in the assay on HEK293 [22], 11.8 µM (active). The half-maximal activity concentration (AC50) with INS1 is 3.67 µM (active). In addition, the CC50 in the assay with Vero is 3.95 µM (active).

Turning to `CCc1ccc(S(=O)(=O)c2nnn3c2nc(O)c2ccccc23)cc1`, the IC50 in the assay on Staphylococcus aureus is 0.244 µM (active).

For `CC(C)Cc1c2c([nH]c(=S)c1C#N)CCCC2`, the results for the 50% inhibitory concentration (IC50) in [23] and in assay [24] were > 39.8 µM (not active) and 6.27 µM (active), respectively.

On to `COc1ccc(CNC(=O)CN(CC2CCCO2)C(=O)CNS(=O)(=O)c2ccc(C)cc2)cc1` (stereo not drawn), for which the results for the EC50 (in assay [25]; in “cells [26]”; in “cells [27]”) were > 50 µM (not active), > 350 µM (not active) and > 350 µM (not active), respectively.

Broadly, the IC50 is the midpoint of a concentration-inhibition curve. As a reminder, the EC50 is the concentration at which the effect is half-maximal. Usually AC50 stands for the concentration giving half of the maximal activity seen.

Source of the values: ChEMBL document CHEMBL1201862, “PubChem BioAssay data set” (2004).
